Results taken from US11633551B2, “Gaseous nitric oxide delivery system and methods of use” (Hansen Pharmaceutical, LLC, priority 2014, dated 2023).
Where “and” joins values, the source holds several entries; their conditions need not be identical. Identical values can stand only once.

Columns and labels:
Type in all cases: cell-based
[1] = tested on: S. aureus; assay: Colony counts after pressurized gNO, 24 hours infection, Franz cell (3-Ring) or Leg Device; settings: 1% gNO after 24 hours of infection
Experimental: Experiments were also conducted to determine the infection-reducing capability of gNO administration at various pressures below 1.0 ATM (14.695 psi) (independent of and in addition to the pressure applied by the external environment) using both a Franz cell tissue culture device (i.e., 3-Ring) and a portable gNO deliver device (i.e., Leg Device). The results of one set of experiments are illustrated below in Table 1. gNO was administered at a 1% concentration after 24 hours of infection with S. aureus. Flow Rates (cm^3/min or cc) varied from about 100 to about 1500, Purge Flow (liters/min or LPM) varied from about 0.1 to about 1.5, and gNO Exposure Time varied between about 45 minutes to about 105 minutes among the different treatment groups and controls. Colony counts (log CFU) were performed at various dilutions, which are represented in the last eight columns labeled 0, 1×10^−1 through 1×10^−7 (“0” indicates no dilution).

[2] = tested on: cells; assay: MTT assay of cell viability after gNO administration; settings: pressurized gNO at about 0.15 ATM (2.2 psi) for about 105 minutes
Experimental: Additionally, MTT assays were performed to assess cell viability after gNO administration. MTT assays are colorimetric-based assays used to assess cell viability as a function of color variation. As illustrated below in Table 2, cell viability after the administration of pressurized gNO at about 0.15 ATM (2.2 psi) for about 105 minutes varied from about 40%-50%.

[3] = tested on: Acinetobacter baumannii (ATCC #BAA-747); assay: Skin sample infection assay, 3 hours infection, bioburden after gNO; settings: 1% gNO at 1 ATM (14.695 psi) for 90 minutes, flow rate 0.1 liters/minute; skin samples infected for 3 hours; FIG. 4
Experimental: (§1) FIG. 4 is a graph illustrating the effects of NO treatment on bioburden using an infection assay, after three hours of infection, according to an embodiment of the present disclosure. Skin samples infected for 3 hours with Staphylococcus, MRSA, Acinetobacter or Pseudomonas and subsequently exposed to 1% gNO at 1 ATM (14.695 psi) for 90 minutes at a flow rate of 0.1 liters/minute. Staphylococcus aureus, subspecies aureus Rosenbach (ATCC #12600); Staphylococcus aureus, subspecies aureus Rosenbach (ATCC #33591), methicillin-resistant strain of Staphylococcus aureus, phage type 92; Acinetobacter baumannii (ATCC #BAA-747); and Pseudomonas aeruginosa (ATTC #BAA-47). Control=infected, untreated tissue. Three sets of triplicates were performed per experiment.

[4] = tested on: Pseudomonas aeruginosa (ATTC #BAA-47); assay: as above; settings: 1% gNO at 1 ATM (14.695 psi) for 90 minutes, flow rate 0.1 liters/minute; skin samples infected for 3 hours; FIG. 4
Experimental: as §1

[5] = tested on: MRSA, methicillin-resistant strain of Staphylococcus aureus (ATCC #33591); assay: as above; settings: 1% gNO at 1 ATM (14.695 psi) for 90 minutes, flow rate 0.1 liters/minute; skin samples infected for 3 hours; FIG. 4
Experimental: as §1

[6] = tested on: Staphylococcus aureus, subspecies aureus Rosenbach (ATCC #12600); assay: as above; settings: 1% gNO at 1 ATM (14.695 psi) for 90 minutes, flow rate 0.1 liters/minute; skin samples infected for 3 hours; FIG. 4
Experimental: as §1

[7] = Trial 0.15 ATM, 3-Ring, purge flow 0.1 LPM, flow rate 100 cc, 0.15 ATM, 105 min
[8] = Trial 0.25 ATM, 3-Ring, purge flow 0.1 LPM, flow rate 100 cc, 0.25 ATM, 90 min
[9] = Trial 0.5 ATM, 3-Ring, purge flow 0.1 LPM, flow rate 100 cc, 0.5 ATM, 90 min
[10] = Trial 0.5 ATM, Leg Device, purge flow 1.0 LPM, flow rate 500 cc, 0.5 ATM, 45 min
[11] = Trial 9 attempt, 3-Ring, purge flow 0.1 LPM, flow rate 100 cc, 0.25 ATM, 90 min
[12] = Trial Calf, Leg Device, purge flow 0.1 LPM, flow rate 100 cc, 0.5 ATM, 90 min
[13] = Trial Heel, Leg Device, purge flow 0.1 LPM, flow rate 100 cc, 0.5 ATM, 90 min
[14] = Trial Leg 1, Leg Device, purge flow 1.5 LPM, flow rate 1500 cc, 1 ATM, 90 min
[15] = Trial Leg 2, Leg Device, purge flow 1.5 LPM, flow rate 100 cc, 0.5 ATM, 90 min
[16] = Trial Leg purge, Leg Device, purge flow 0.5 LPM, flow rate 100 cc, 0.25 ATM, 90 min
[17] = Trial Toe, Leg Device, purge flow 0.1 LPM, flow rate 100 cc, 0.5 ATM, 90 min
[18] = Trial d Pressure, Leg Device, purge flow 0.1 LPM, flow rate 100 cc, 0.5 ATM, 45 min

[N]=O [gNO, Nitric Oxide]
total kill: Reduction of bioburden (summary of Table 1) ([1]; pressures as low as about 0.15 ATM (2.2 psi), exposure times of about 105 minutes)
TNTC: Colony counts, 0 (no dilution) [1, 11] | Colony counts, 1 × 10−1 dilution [1, 11] | Colony counts, 1 × 10−2 dilution [1, 11] | Colony counts, 0 (no dilution) [1, 18] | Colony counts, 1 × 10−1 dilution [1, 18] | Colony counts, 1 × 10−2 dilution [1, 18] | Colony counts, 1 × 10−3 dilution [1, 18]
0 log CFU: Colony counts, 1 × 10−5 dilution [1, 7] | Colony counts, 1 × 10−6 dilution [1, 7] | Colony counts, 1 × 10−7 dilution [1, 7] | Colony counts, 1 × 10−5 dilution [1, 8] | Colony counts, 1 × 10−6 dilution [1, 8] | Colony counts, 1 × 10−7 dilution [1, 8] | Colony counts, 1 × 10−2 dilution [1, 9] | Colony counts, 1 × 10−3 dilution [1, 9] | Colony counts, 1 × 10−4 dilution [1, 9] | Colony counts, 1 × 10−5 dilution [1, 9] | Colony counts, 1 × 10−6 dilution [1, 9] | Colony counts, 1 × 10−7 dilution [1, 9] | Colony counts, 0 (no dilution) [1, 10] | Colony counts, 1 × 10−1 dilution [1, 10] | Colony counts, 1 × 10−2 dilution [1, 10] | Colony counts, 1 × 10−3 dilution [1, 10] | Colony counts, 1 × 10−4 dilution [1, 10] | Colony counts, 1 × 10−5 dilution [1, 10] | Colony counts, 1 × 10−6 dilution [1, 10] | Colony counts, 1 × 10−7 dilution [1, 10] | Colony counts, 0 (no dilution) [1, 12] | Colony counts, 1 × 10−1 dilution [1, 12] | Colony counts, 1 × 10−2 dilution [1, 12] | Colony counts, 1 × 10−3 dilution [1, 12] | Colony counts, 1 × 10−4 dilution [1, 12] | Colony counts, 1 × 10−5 dilution [1, 12] | Colony counts, 1 × 10−6 dilution [1, 12] | Colony counts, 1 × 10−7 dilution [1, 12] | Colony counts, 0 (no dilution) [1, 13] | Colony counts, 1 × 10−1 dilution [1, 13] | Colony counts, 1 × 10−2 dilution [1, 13] | Colony counts, 1 × 10−3 dilution [1, 13] | Colony counts, 1 × 10−4 dilution [1, 13] | Colony counts, 1 × 10−5 dilution [1, 13] | Colony counts, 1 × 10−6 dilution [1, 13] | Colony counts, 1 × 10−7 dilution [1, 13] | Colony counts, 0 (no dilution) [1, 14] | Colony counts, 1 × 10−1 dilution [1, 14] | Colony counts, 1 × 10−2 dilution [1, 14] | Colony counts, 1 × 10−3 dilution [1, 14] | Colony counts, 1 × 10−4 dilution [1, 14] | Colony counts, 1 × 10−5 dilution [1, 14] | Colony counts, 1 × 10−6 dilution [1, 14] | Colony counts, 1 × 10−7 dilution [1, 14] | Colony counts, 0 (no dilution) [1, 15] | Colony counts, 1 × 10−1 dilution [1, 15] | Colony counts, 1 × 10−2 dilution [1, 15] | Colony counts, 1 × 10−3 dilution [1, 15] | Colony counts, 1 × 10−4 dilution [1, 15] | Colony counts, 1 × 10−5 dilution [1, 15] | Colony counts, 1 × 10−6 dilution [1, 15] | Colony counts, 1 × 10−7 dilution [1, 15] | Colony counts, 0 (no dilution) [1, 16] | Colony counts, 1 × 10−1 dilution [1, 16] | Colony counts, 1 × 10−2 dilution [1, 16] | Colony counts, 1 × 10−3 dilution [1, 16] | Colony counts, 1 × 10−4 dilution [1, 16] | Colony counts, 0 (no dilution) [1, 17] | Colony counts, 1 × 10−1 dilution [1, 17] | Colony counts, 1 × 10−2 dilution [1, 17] | Colony counts, 1 × 10−3 dilution [1, 17] | Colony counts, 1 × 10−4 dilution [1, 17] | Colony counts, 1 × 10−5 dilution [1, 17] | Colony counts, 1 × 10−6 dilution [1, 17] | Colony counts, 1 × 10−7 dilution [1, 17]
nearly completely eradicated: Reduction of bioburden [3] | Reduction of bioburden [4] | Reduction of bioburden [5]
40%-50%: Cell viability ([2]; summary of Table 2)
44.7% and 44.2% and 39.9%: % Viability ([2]; control = 100)
5 fold: Reduction of bioburden [6]
